The results in this text go back to patent US10343977B2, “Tetrahydro-isohumulone derivatives, methods of making and using” (KINDEX PHARMACEUTICALS, INC., priority 2012, dated 2019).

Data set [1] has as its system LPS-mediated MIP-1α production in THP-1 cells. The experiment in a line: LPS-mediated MIP-1α production in THP-1 cells. Format: cell-based. The conditions noted are these: Homo sapiens; 12.5 μM test compound; THP-1 cells, LPS 1 μg/ml; NI = no inhibition. As for the experimental part:
(§1) THIAA derivatives synthesized in Examples 1-19 were dissolved in dimethyl sufoxide (DMSO) and stored at −20° C. LPS was purchased from Sigma Chemicals (St. Louis, Miss.).
(§2) The effect of the THIAA derivatives on LPS-mediated MMP-9, IL-1β, ([…], MCP-1, RANTES, and MIP-1α was evaluated in THP-1 cells. Stimulation of THP-1 cells with LPS (1 μg/ml) activated the production of MMP-9, IL-1β, MCP-1, RANTES, and MIP-1α.
(§3) Results are summarized in Table 2, with data represented as % inhibition of inflammatory mediator production.

Data set [2] has as its system LPS-mediated nitric oxide (NO) production in RAW264.7 cells. The experiment in a line: LPS-mediated NO production in RAW264.7 murine macrophage model. Format: cell-based. The conditions noted are these: Mus musculus, RAW264.7, 16 h, 12.5 μM test compound, LPS 1 μg/ml, NI = no inhibition. As for the experimental part:
as §1
(§4) The effect of the THIAA derivatives on LPS-mediated prostaglandin E2 (PGE2) and nitric oxide (NO) production was evaluated in a RAW264.7 murine macrophage model. The RAW 264.7 cell line was purchased from ATCC (Manassas, Va.) and maintained according to their instructions. Cells were grown and subcultured in 96-well plates at a density of 8×10^4 cells per well, and reached 80-90% confluence the next day. THIAA derivatives were added to the cells in serum-free medium at a final concentration of 0.1% DMSO. Following one hour of incubation with the THIAA derivatives, LPS (1 μg/ml) or DMEM medium alone was added to the cells and incubation was continued for 6 hours. Stimulation of RAW 264.7 cells with LPS (1 μg/ml) for 6 hours activated the production of PGE2 and NO. Supernatant media was collected for measurement of PGE2 levels. For NO, incubations were continued overnight. Supernatant media was collected for measurement of NO levels after 16 hours of stimulation. PGE2 levels were measured using assay kits from Assay Designs, (Ann Arbor, Mich.) and NO levels were measured using assay kits from Cayman Chemicals (Ann Harbor, Mich.).
as §3

For data set [3], the system named is LPS-mediated prostaglandin E2 (PGE2) production in RAW264.7 cells. The experiment in a line: LPS-mediated PGE2 production in RAW264.7 murine macrophage model. Format: cell-based. The note with it: Mus musculus, RAW264.7, 6 h, 12.5 μM test compound, LPS 1 μg/ml, NI = no inhibition. The method, then: as §1, §4, §3
Data set [4] concerns LPS-mediated IL-6 production in THP-1 cells. The experiment in a line: LPS-mediated IL-6 production in THP-1 cells. Format: cell-based. The conditions noted are these: Homo sapiens; 12.5 μM test compound; THP-1 cells, LPS 1 μg/ml; NI = no inhibition. As for the experimental part: as §1, §2, §3
Data set [5] concerns LPS-mediated MCP-1 production in THP-1 cells. The experiment in a line: LPS-mediated MCP-1 production in THP-1 cells. In kind it is cell-based. The conditions noted are these: Homo sapiens; 12.5 μM test compound; THP-1 cells, LPS 1 μg/ml; NI = no inhibition. As for the experimental part:
as §1, §2, §3

Data set [6] concerns LPS-mediated RANTES production in THP-1 cells. The experiment in a line: LPS-mediated RANTES production in THP-1 cells. The conditions noted are these: Homo sapiens; 12.5 μM test compound; THP-1 cells, LPS 1 μg/ml; NI = no inhibition. In kind it is cell-based. As for the experimental part: as §1, §2, §3
The next data set concerns the target T1, PPARα (Homo sapiens, UniProt Q07869).
T1 sequence (Q07869 1-468): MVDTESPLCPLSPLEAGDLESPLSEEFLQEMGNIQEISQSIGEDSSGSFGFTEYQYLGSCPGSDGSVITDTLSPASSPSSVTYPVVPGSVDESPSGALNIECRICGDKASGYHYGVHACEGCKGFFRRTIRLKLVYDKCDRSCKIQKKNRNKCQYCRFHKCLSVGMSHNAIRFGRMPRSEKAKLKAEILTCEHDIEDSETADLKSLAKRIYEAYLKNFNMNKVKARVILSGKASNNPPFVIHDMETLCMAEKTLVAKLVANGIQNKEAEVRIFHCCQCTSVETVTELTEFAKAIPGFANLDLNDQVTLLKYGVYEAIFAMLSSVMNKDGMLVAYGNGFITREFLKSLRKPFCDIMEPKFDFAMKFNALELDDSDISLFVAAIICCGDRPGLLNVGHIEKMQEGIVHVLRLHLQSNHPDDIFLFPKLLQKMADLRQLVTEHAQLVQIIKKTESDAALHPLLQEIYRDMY
The experiment in a line: PPARα reporter assay (INDIGO Biosciences). In kind it is cell-based. The conditions noted are these: 12.5 μM test compound, luciferase reporter cells, 20 hours, activity compared to GW590735; for Emax at 12.5 µM: read-out: PPARα % GW590735 (20.6 nM). The method, then: (§5) The functional effect of THIAA derivatives on PPARα and PPARγ activity was evaluated using a PPAR reporter assay (INDIGO Biosciences, Pa.). This assay utilizes non-human mammalian cells engineered to provide constitutive high level expression of PPARα, or PPARγ and containing a luciferase report gene specific to the appropriate PPAR. Following activation by agonist binding, PPAR induces expression of the luciferase reporter gene. Luciferase activity therefore provides a surrogate for measuring PPAR activity in agonist-treated cells.
(§6) 0.1% DMSO was used as a solvent control for each assay. Plates were incubated for 20 hours in a humidified incubator at 37° C. and 5% CO2. After incubation, the cell medium was discarded and the cells were treated with 100 μL of luciferase detection reagent for 15 minutes. Plates were analyzed using a luminometer (Victor2, Perkin Elmer). Average relative light unit (RLU) and standard deviation were measured.
In general terms: Reporter assays use an easily measured gene product as a stand-in for the process of interest.

Data set [7] has as its system LPS-mediated inflammatory mediators in RAW264.7 and THP-1 cells. The experiment in a line: Mean inhibition across all six inflammatory mediators. Format: cell-based. The note with it: 12.5 μM test compound. The method, then:
as §4, §2, §3
Mean inhibition across all six inflammatory mediators was calculated for each of the THIAA derivatives.

A further data set concerns the target T2, PPARγ (Homo sapiens, UniProt P37231).
T2 sequence (P37231 1-505): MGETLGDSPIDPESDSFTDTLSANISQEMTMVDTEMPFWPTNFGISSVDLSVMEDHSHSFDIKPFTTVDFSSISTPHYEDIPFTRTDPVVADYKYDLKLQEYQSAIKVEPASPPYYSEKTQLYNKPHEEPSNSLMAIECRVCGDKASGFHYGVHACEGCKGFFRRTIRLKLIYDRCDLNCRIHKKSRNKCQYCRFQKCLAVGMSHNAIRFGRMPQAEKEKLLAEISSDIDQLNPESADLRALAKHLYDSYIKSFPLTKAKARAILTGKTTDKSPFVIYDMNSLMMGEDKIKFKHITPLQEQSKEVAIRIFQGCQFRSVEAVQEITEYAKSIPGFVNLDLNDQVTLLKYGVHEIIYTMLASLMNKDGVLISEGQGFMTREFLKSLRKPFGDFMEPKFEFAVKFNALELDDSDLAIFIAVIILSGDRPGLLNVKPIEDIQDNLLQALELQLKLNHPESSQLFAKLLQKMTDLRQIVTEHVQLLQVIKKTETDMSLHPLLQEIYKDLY
The experiment in a line: PPARγ reporter assay (INDIGO Biosciences). The conditions noted are these: 20 h, read-out: PPARγ % rosiglitazone (500 nM), 12.5 μM test compound; luciferase reporter cells, 20 hours; activity compared to rosiglitazone. Format: cell-based. As for the experimental part: as §5, §6

As usually defined, the inhibition is the share of the control response that was lost under treatment. The low end stands for little suppression, the high end for strong suppression. By melting point is commonly meant the temperature of the solid-liquid transition. As to `CC(C)CCC(=O)[C@@]1(O)C(O)=C(C(=O)C(C)C)C(=O)[C@@H]1CCC(C)C` [KDT100, (4S,5R)-3,4-dihydroxy-5-(3-methylbutyl)-4-(4-methylpentanoyl)-2-(2-methylpropanoyl)cyclopent-2-en-1-one], the melting point lay in the range of 49 to 50 °C. The compound further came in with an inhibition at 12.5 µM in data set [1] below 0%. The inhibition at 12.5 µM in data set [2] is below 0%. This compound showed an inhibition at 12.5 µM in data set [3] below 0%. The inhibition at 12.5 µM in data set [4] is below 20%. In [5], this compound came in with an inhibition at 12.5 µM of 61%. Besides, the inhibition at 12.5 µM in data set [6] was 22%. Further, at PPARα, the “PPARα % GW590735 (20.6 nM)” value was “no effect” and the Emax at 12.5 µM was below 5%. The compound also returned an inhibition at 12.5 µM in [7] below 20%.
With `CC(C)CC[C@H]1C(=O)C(C(=O)CC(C)C)=C(O)[C@]1(O)C(=O)CCC(C)C(=O)O` (stereo partly drawn) [KDT0038, 5-[(1S,5R)-1,2-dihydroxy-3-(3-methylbutanoyl)-5-(3-methylbutyl)-4-oxocyclopent-2-en-1-yl]-2-methyl-5-oxopentanoic Acid], the inhibition at 12.5 µM in data set [1] is below 0%; in [2], below 0%; in [3] it was below 0%; in data set [4], below 0%; in data set [5], 46%; in data set [6], below 20%. In [7], the inhibition at 12.5 µM was below 20%. Moreover, the Emax at 12.5 µM at PPARα and at PPARγ was below 5% in each case.
In the case of `CO/N=C(/CC(C)C)C1=C(O)[C@](O)(/C(CCC(C)C)=N/OC)[C@@H](CCC(C)C)C1=O` [KDT0001/2, (4R,5R)-3,4-dihydroxy-2-(N-methoxy-3-methylbutanimidoyl)-4-(N-methoxy-4-methylpentanimidoyl)-5-(3-methylbutyl)cyclopent-2-en-1-one], the inhibition at 12.5 µM was below 20% in data set [1]; below 0% in data set [2]; 55% in data set [3]; 60% in data set [4]; 74% in data set [5]; 45% in [6]. In addition, the inhibition at 12.5 µM in data set [7] amounted to 39%. For the same compound, the Emax at 12.5 µM at PPARα and on PPARγ was below 5% throughout.
`CCCCCCCCCC(=O)O[C@]1(C(=O)CCC(C)C)C(O)=C(C(=O)C(C)C)C(=O)[C@@H]1CCC(C)C` [KDT0036, (1S,5R)-2-hydroxy-5-(3-methylbutyl)-1-(4-methylpentanoyl)-3-(2-methylpropanoyl)-4-oxocyclopent-2-en-1-yl decanoate]: the inhibition at 12.5 µM in data set [1] turned out to be 25%; in [2] it was 97%; in data set [3], 45%; in data set [4], 83%; in data set [5], 98%; in [6], 88%. For the same compound, testing at 12.5 µM in data set [7] gave an inhibition of 73%. Further, at PPARα, the “PPARα % GW590735 (20.6 nM)” value is given as “no effect”. For the same compound, the Emax at 12.5 µM was below 5% on PPARα and at least 5% at PPARγ.
Consider `CN/C(CC(C)C)=C1\C(=O)[C@H](CCC(C)C)[C@@](O)(C(=O)CCC(C)C)C1=O` [KDT0020, (4R,5R)-4-hydroxy-5-(3-methylbutyl)-2-[3-methyl-1-(methylamino)butylidene]-4-(4-methylpentanoyl)cyclopentane-1,3-dione], for which the inhibition at 12.5 µM was below 20% in data set [1]; below 20% in [2]; 75% in [3]; 70% in data set [4]; 82% in data set [5]; 35% in [6]. In data set [7], this compound gave an inhibition at 12.5 µM of 46%. Moreover, the Emax at 12.5 µM at PPARα and on PPARγ was below 5% throughout.
